Tests used:
Danio rerio embryo [1] = settings: exposure time: 4 dpf
Experimental: (§1)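 Zebrafish embryos (UFZ-OBI strain) were exposed from 2 hpf for 48 h (2 dpf) or 96 h (4 dpf) at 28 °C; spontaneous tail coiling was scored at 25 hpf. Morphological features from automated image analysis (FishInspector), heart rate and locomotor response were fitted with drc models. Quantal endpoints were dichotomised at 2.5 SD from controls and fitted with a log-logistic model; heart rate, pigmentation and STC were normalised to the replicate control mean. Betamethasone was tested as betamethasone dipropionate, diflorasone as diflorasone diacetate.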

Danio rerio embryo [2] = tested on: Danio rerio embryo
Experimental: as §1

Danio rerio embryo [3] = assay: EC50 Eye size_Decrease
Experimental: as §1

Danio rerio embryo [4] = assay: EC10 Heart rate; higher = less potent
Experimental: as §1

Danio rerio embryo [5] = assay: EC10 Lack of SB; higher = less potent; settings: exposure time: 4 dpf
Experimental: as §1

Danio rerio embryo [6] = assay: EC20 Lack of SB; higher = less potent; settings: exposure time: 4 dpf
Experimental: as §1

Danio rerio embryo [7] = assay: EC20 Heart rate; higher = less potent
Experimental: as §1

Danio rerio embryo [8] = assay: EC20 STC bell shape; higher = less potent; settings: exposure time: 25 h
Experimental: as §1

Danio rerio embryo [9] = assay: EC10 STC bell shape; higher = less potent; settings: exposure time: 25 h
Experimental: as §1

Danio rerio embryo [10] = assay: EC10 Eye size_Decrease; higher = less potent
Experimental: as §1

Danio rerio embryo [11] = assay: EC10 Pigmentation decrease; higher = less potent
Experimental: as §1

Danio rerio embryo [12] = assay: EC20 Pigmentation decrease; higher = less potent
Experimental: as §1

Danio rerio embryo [13] = assay: EC50 Head size_Decrease
Experimental: as §1

Danio rerio embryo [14] = assay: EC50 Head trunk angle_Decrease; settings: exposure time: 2 dpf
Experimental: as §1

Danio rerio embryo [15] = assay: EC20 Otolith; higher = less potent; settings: exposure time: 2 dpf
Experimental: as §1

Danio rerio embryo [16] = assay: EC10 Otolith; higher = less potent; settings: exposure time: 2 dpf
Experimental: as §1

Danio rerio embryo [17] = assay: EC20 Head size_Decrease; higher = less potent
Experimental: as §1

Danio rerio embryo [18] = assay: EC10 Head size_Decrease; higher = less potent
Experimental: as §1

Danio rerio embryo [19] = assay: EC10 Head trunk angle_Decrease; higher = less potent; settings: exposure time: 2 dpf
Experimental: as §1

Danio rerio embryo [20] = tested on: Danio rerio embryo; remark: listed apart in the source
Experimental: as §1

Danio rerio embryo [21] = assay: EC50 Mandibular arch distance_Decrease; settings: exposure time: 4 dpf
Experimental: as §1

Danio rerio embryo [22] = assay: EC10 STC increase; higher = less potent; settings: exposure time: 25 h
Experimental: as §1

Danio rerio embryo [23] = assay: EC20 STC increase; higher = less potent; settings: exposure time: 25 h
Experimental: as §1

Danio rerio embryo [24] = assay: EC10 LMR ligth decrease; higher = less potent; settings: exposure time: 4 dpf
Experimental: as §1

Danio rerio embryo [25] = assay: EC20 LMR ligth decrease; higher = less potent; settings: exposure time: 4 dpf
Experimental: as §1

Danio rerio embryo [26] = assay: EC10 Pigmentation increase; higher = less potent; settings: exposure time: 4 dpf
Experimental: as §1

Danio rerio embryo [27] = assay: EC20 Pigmentation increase; higher = less potent; settings: exposure time: 4 dpf
Experimental: as §1

Danio rerio embryo [28] = assay: EC20 Mandibular arch distance_Decrease; higher = less potent; settings: exposure time: 4 dpf
Experimental: as §1

Danio rerio embryo [29] = assay: EC10 Mandibular arch distance_Decrease; higher = less potent; settings: exposure time: 4 dpf
Experimental: as §1

Danio rerio embryo [30] = assay: EC10 STC decrease; higher = less potent; settings: exposure time: 25 h
Experimental: as §1

Danio rerio embryo [31] = assay: EC20 STC decrease; higher = less potent; settings: exposure time: 25 h
Experimental: as §1

Compound	EC50 Lack of SB (Danio rerio embryo [1])	EC50 Eye size Decrease (Danio rerio embryo [3]; exposure time: 4 dpf)	EC10 Heart rate (Danio rerio embryo [4]; exposure time: 2 dpf)	EC10 Heart rate (Danio rerio embryo [4]; exposure time: 4 dpf)	EC10 Lack of SB (Danio rerio embryo [5])	EC20 Lack of SB (Danio rerio embryo [6])	EC20 Heart rate (Danio rerio embryo [7]; exposure time: 2 dpf)	EC20 Heart rate (Danio rerio embryo [7]; exposure time: 4 dpf)	EC10 Eye size Decrease (Danio rerio embryo [10]; exposure time: 4 dpf)	EC10 Pigmentation decrease (Danio rerio embryo [11]; exposure time: 2 dpf)	EC20 Pigmentation decrease (Danio rerio embryo [12]; exposure time: 2 dpf)	EC50 Eye size Decrease (Danio rerio embryo [3]; exposure time: 2 dpf)	EC50 Head size Decrease (Danio rerio embryo [13]; exposure time: 2 dpf)	EC50 Head trunk angle Decrease (Danio rerio embryo [14])	EC10 Eye size Decrease (Danio rerio embryo [10]; exposure time: 2 dpf)	EC20 Head size Decrease (Danio rerio embryo [17]; exposure time: 2 dpf)	EC10 Head size Decrease (Danio rerio embryo [18]; exposure time: 2 dpf)	EC10 Head trunk angle Decrease (Danio rerio embryo [19])	EC50 Heart rate (Danio rerio embryo [20]; exposure time: 4 dpf)	other results
Cc1ccc(-c2cc(C(F)(F)F)nn2-c2ccc(S(N)(=O)=O)cc2)cc1 [Celecoxib]	9.14 µM	13.4 µM	10.3 µM	2.25 µM	8.08 µM	8.45 µM	16.1 µM	4.72 µM	9.06 µM	23.7 µM	27.1 µM	–	–	–	–	–	–	–	–	EC50 Pigmentation decrease (Danio rerio embryo [2]; exposure time: 2 dpf): 34 µM; EC20 STC bell shape (Danio rerio embryo [8]): 23.8 µM; EC10 STC bell shape (Danio rerio embryo [9]): 20.4 µM
CCCCOC(=O)[C@@H](C)Oc1ccc(Oc2ccc(C(F)(F)F)cn2)cc1 [fluazifop-p-butyl]	1.65 µM	1.85 µM	–	–	0.734 µM	0.991 µM	–	–	0.781 µM	2.74 µM	4.35 µM	3.96 µM	6.88 µM	15.5 µM	1.03 µM	4.24 µM	3.19 µM	1.74 µM	–	EC50 Pigmentation decrease (Danio rerio embryo [2]; exposure time: 2 dpf): 9.58 µM; EC20 Otolith (Danio rerio embryo [15]): 6.11 µM; EC10 Otolith (Danio rerio embryo [16]): 4.73 µM
CC(C)(C)C(O)/C(=C/c1ccc(Cl)cc1Cl)n1cncn1 (centres undefined) [Diniconazole]	–	5.05 µM	4.6 µM	5.23 µM	–	–	6.61 µM	7 µM	2.97 µM	6.17 µM	7.3 µM	7.85 µM	5.99 µM	4.5 µM	6.22 µM	4.37 µM	3.64 µM	2.62 µM	11.3 µM	EC50 Mandibular arch distance Decrease (Danio rerio embryo [21]): 6.4 µM; EC10 STC increase (Danio rerio embryo [22]): 6.86 µM; EC20 STC increase (Danio rerio embryo [23]): 7.82 µM; EC10 LMR ligth decrease (Danio rerio embryo [24]): 0.478 µM; EC20 LMR ligth decrease (Danio rerio embryo [25]): 0.855 µM; EC10 Pigmentation increase (Danio rerio embryo [26]): 2.49 µM; EC20 Pigmentation increase (Danio rerio embryo [27]): 4.99 µM; EC20 Mandibular arch distance Decrease (Danio rerio embryo [28]): 3.04 µM; EC10 Mandibular arch distance Decrease (Danio rerio embryo [29]): 1.96 µM
CN(Cc1cnc2nc(N)nc(N)c2n1)c1ccc(C(=O)N[C@@H](CCC(=O)O)C(=O)O)cc1 [Methotrexate]	108 µM	162 µM	–	–	82.2 µM	91 µM	–	–	96.2 µM	185 µM	235 µM	–	–	252 µM	–	–	–	148 µM	–	EC10 LMR ligth decrease (Danio rerio embryo [24]): 32.5 µM; EC20 LMR ligth decrease (Danio rerio embryo [25]): 53.8 µM
CCO/N=C(\CC)C1=C(O)CC(c2c(C)cc(C)cc2C)CC1=O (centres undefined) [Tralkoxydim]	63.2 µM	104 µM	–	46.5 µM	45.3 µM	51.2 µM	–	49.9 µM	89.7 µM	–	–	164 µM	176 µM	120 µM	103 µM	103 µM	74.7 µM	73.6 µM	56.3 µM	EC20 Otolith (Danio rerio embryo [15]): 160 µM; EC10 Otolith (Danio rerio embryo [16]): 126 µM; EC10 STC decrease (Danio rerio embryo [30]): 127 µM; EC20 STC decrease (Danio rerio embryo [31]): 142 µM
O=C(O)CCc1nc(-c2ccccc2)c(-c2ccccc2)o1 [Oxaprozin]	10.5 µM	26.7 µM	28 µM	23 µM	7.85 µM	8.73 µM	52.1 µM	29.1 µM	20.6 µM	–	–	78.1 µM	26.6 µM	–	53.1 µM	15.1 µM	10.8 µM	–	–	EC50 Heart rate (Danio rerio embryo [20]; exposure time: 2 dpf): 150 µM; EC50 Head size Decrease (Danio rerio embryo [13]; exposure time: 4 dpf): 43.4 µM; EC10 STC increase (Danio rerio embryo [22]): 6.23 µM; EC20 STC increase (Danio rerio embryo [23]): 12.4 µM; EC20 Head size Decrease (Danio rerio embryo [17]; exposure time: 4 dpf): 19.7 µM; EC10 Head size Decrease (Danio rerio embryo [18]; exposure time: 4 dpf): 12.4 µM; EC10 Pigmentation increase (Danio rerio embryo [26]): 29.2 µM; EC20 Pigmentation increase (Danio rerio embryo [27]): 31 µM
CCOC(=O)N1CCC(=C2c3ccc(Cl)cc3CCc3cccnc32)CC1 [Loratadine]	0.282 µM	6.82 µM	1.01 µM	1.1 µM	0.167 µM	0.202 µM	2.72 µM	2.18 µM	5.5 µM	–	–	8.45 µM	12.7 µM	7.05 µM	5.86 µM	4.61 µM	2.55 µM	4.17 µM	7.03 µM	EC50 Pigmentation decrease (Danio rerio embryo [2]; exposure time: 4 dpf): 9.57 µM; EC50 Heart rate (Danio rerio embryo [20]; exposure time: 2 dpf): 14.8 µM; EC50 Head size Decrease (Danio rerio embryo [13]; exposure time: 4 dpf): 14.1 µM; EC10 STC decrease (Danio rerio embryo [30]): 3.8 µM; EC20 STC decrease (Danio rerio embryo [31]): 4.66 µM; EC20 Head size Decrease (Danio rerio embryo [17]; exposure time: 4 dpf): 8.95 µM; EC10 Head size Decrease (Danio rerio embryo [18]; exposure time: 4 dpf): 6.85 µM; EC10 Pigmentation decrease (Danio rerio embryo [11]; exposure time: 4 dpf): 8.11 µM; EC20 Pigmentation decrease (Danio rerio embryo [12]; exposure time: 4 dpf): 8.62 µM

Reference: the supplement of paper PMC9013687
